Experimental data: US20170014352A1, “WATER-DISPERSIBLE AMORPHOUS PARTICLES AND METHOD FOR PREPARING SAME” (The University of Tokyo, priority 2014, published 2017)
Counter-ions that a name gives are not always drawn. Like-named read-outs stand apart in the source and are kept apart here. Each block holds one compound with its values, some of them ahead of it.

Key:
[1] = particle size (Z-average, hydrodynamic diameter) and PDI by dynamic light scattering (DLS); format: physicochemical
Text: The “particle size” herein means an average particle size, and is defined as a particle size (Z-average) measured by use of a dynamic light scattering (Dynamic Light Scattering: DLS) method. The particle size thus measured is also referred to as “hydrodynamic diameter”.
The “polydispersity index (Polydispersity index: PDI)” herein is an index for evaluating the width of a particle size distribution, and is in the range from 0 to 1. A value of 0 represents an ideal suspension without any size distribution. A distribution having a PDI value of 0.1 or less is referred to as “monodispersity”, and on the other hand, a dispersion having a value between 0.1 and 0.3 is considered to have a narrow size distribution. A dispersion having a PDI of more than 0.5 is considered to be polydisperse. The polydispersity index is calculated from the value obtained by use of a dynamic light scattering (Dynamic Light Scattering: DLS) method.
Measurement by a DLS method was performed by use of a laser light scattering apparatus (Zetasizer Nano ZS manufactured by Malvern instruments Ltd.). A scanning electron microscope (SEM) image was obtained by use of Magellan 4001 manufactured by FEI Company. Powder X-ray diffraction was performed by use of SmartLab manufactured by Rigaku Corporation. FDU-1200 manufactured by EYELA was used for a freeze-dryer.

[2] = cited from earlier work; for logP: measured value described in the literature; for log P: starting organic compound, Examples 9 and 10
[3] = at 25° C.; cited from earlier work
[4] = Example 6: 100 μM THF solution of compound injected into water, THF distilled off, water dispersion
[5] = Example 7: water injected into THF solution of compound (concentration 100 W), water dispersion

PDI [1, 4]: 0.27
Particle size (nm) [1, 4]: 228 nm
PDI [1, 5]: 0.02
Particle size (nm) [1, 5]: 165 nm
Compound: CC(C)CCC[C@@H](C)[C@H]1CC[C@H]2[C@@H]3CC=C4C[C@@H](O)CC[C@]4(C)[C@H]3CC[C@]12C [Cholesterol, cholesterol]
logP ([2]; Table 1): 9.61
logP ([2]; Table 2): 9.61

Compound: COc1ccc(CC(C)NCC(O)c2ccc(O)c(NC=O)c2)cc1 (stereo not shown) [Formoterol fumarate hydrate]
solubility in water [3]: 170 µg/mL
log P [2]: 2.0

Compound: Cc1c(OCC(F)(F)F)ccnc1C[S+]([O-])c1nc2ccccc2[nH]1 (stereo not shown) [Lansoprazole]
solubility in water [3]: less than 0.1 mg/mL
log P [2]: 2.58

Compound: c1ccc2cc3cc4cc5ccccc5cc4cc3cc2c1 [Pentacene, pentacene]
PDI [1, 5]: 0.02
Particle size (nm) [1, 5]: 116 nm

Compound: c1cc2ccc3cccc4ccc(c1)c2c34 [Pyrene, pyrene]
PDI [1, 5]: 0.13
Particle size (nm) [1, 5]: 120 nm

PDI [1, 5]: 0.34
Particle size (nm) [1, 5]: 10 nm
Compound: CCCc1nc2c(C)cc(-c3nc4ccccc4n3C)cc2n1Cc1ccc(-c2ccccc2C(=O)O)cc1 [Telmisartan, telmisartan, reference compound]
logP ([2]; Table 2): 6.48

Compound: pyrenecarboxylic acid
PDI [1]: 0.14
Particle size (nm) [1]: 76 nm
